In patent US10925876B2, “Methods for using triazolo-pyrazinyl soluble guanylate cyclase activators in fibrotic disorders” (Merck Sharp & Dohme Corp., priority 2016, dated 2021):

Legend:
sGC α1/β1 heterodimer = molecular target: T1, sGC α1/β1 heterodimer (Homo sapiens, UniProt Q02108+Q02153); assay: Cell-Based sGC Functional Assay (CASA Assay), cGMP generation in CHO-K1/sGC cells;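 also: reference Compound A is a published heme-dependent sGC activator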; conditions: maximum cGMP production of Compound A set to 100% activation, read-out: % Act. (percent activation relative to Compound A)
T1 construct: expressed in transfected cells
T1 sequence (Q02108 1-690): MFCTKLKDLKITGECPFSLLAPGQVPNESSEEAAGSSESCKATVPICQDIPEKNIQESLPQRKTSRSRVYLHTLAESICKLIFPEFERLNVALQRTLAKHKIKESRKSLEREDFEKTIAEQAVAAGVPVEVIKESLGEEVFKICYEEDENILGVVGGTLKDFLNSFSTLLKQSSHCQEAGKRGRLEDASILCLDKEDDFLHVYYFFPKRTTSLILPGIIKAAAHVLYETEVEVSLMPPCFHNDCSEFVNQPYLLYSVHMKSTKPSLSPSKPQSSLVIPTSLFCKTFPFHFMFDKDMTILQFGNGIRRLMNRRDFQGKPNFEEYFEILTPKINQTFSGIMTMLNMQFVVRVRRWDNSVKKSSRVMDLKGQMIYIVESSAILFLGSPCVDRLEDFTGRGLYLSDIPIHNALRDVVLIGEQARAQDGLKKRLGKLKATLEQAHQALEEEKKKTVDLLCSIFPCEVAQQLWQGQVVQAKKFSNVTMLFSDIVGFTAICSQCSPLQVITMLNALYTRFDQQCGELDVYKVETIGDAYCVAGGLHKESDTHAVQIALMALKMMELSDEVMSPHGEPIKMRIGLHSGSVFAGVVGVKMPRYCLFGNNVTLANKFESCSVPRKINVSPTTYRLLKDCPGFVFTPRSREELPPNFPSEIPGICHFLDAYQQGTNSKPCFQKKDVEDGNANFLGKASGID
T1 sequence (Q02153 1-619): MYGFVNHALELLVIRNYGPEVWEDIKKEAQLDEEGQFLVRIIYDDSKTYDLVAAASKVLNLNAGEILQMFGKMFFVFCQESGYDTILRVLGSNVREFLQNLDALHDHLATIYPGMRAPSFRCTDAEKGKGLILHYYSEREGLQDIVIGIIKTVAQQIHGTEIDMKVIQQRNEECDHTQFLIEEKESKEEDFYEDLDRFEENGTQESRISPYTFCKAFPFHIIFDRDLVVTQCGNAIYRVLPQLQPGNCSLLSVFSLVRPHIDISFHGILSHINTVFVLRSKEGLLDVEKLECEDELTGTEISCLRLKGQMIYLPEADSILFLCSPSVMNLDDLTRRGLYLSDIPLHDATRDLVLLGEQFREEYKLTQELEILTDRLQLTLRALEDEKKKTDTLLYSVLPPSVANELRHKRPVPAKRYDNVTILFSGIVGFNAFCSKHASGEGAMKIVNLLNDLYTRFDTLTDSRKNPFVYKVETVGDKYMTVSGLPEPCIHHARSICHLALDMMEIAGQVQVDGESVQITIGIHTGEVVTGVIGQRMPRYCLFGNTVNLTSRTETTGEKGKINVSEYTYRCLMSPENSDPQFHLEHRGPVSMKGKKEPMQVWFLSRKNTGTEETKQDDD
Method in brief: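 Intracellular cGMP quantified by HTRF competition after 1 h, 37 °C compound exposure, with or without 1 μM DETA-NO, in stable CHO-K1/sGC α1/β1 cells (4×10^5/mL; buffer with 0.5 mM IBMX, 5 mM MgCl2, 10 mM HEPES, 0.05% BSA; 2.5% DMSO). Activation normalized to reference Compound A maximum; 4P fit.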

[1] = test system: Spontaneously hypertensive rats (SHR); assay: Acute Efficacy in Spontaneously Hypertensive Rats (SHR), telemetry blood pressure; format: in vivo, rat; conditions: single oral gavage
Source text: Spontaneously hypertensive rats (SHR, male, Charles River) were implanted with DSI TA11PA-C40 telemetry device (Data Sciences, Inc., St. Paul, Minn.) under isoflurane or ketamine/metomidine anesthesia. The telemetry unit catheter was inserted into the descending aorta via the femoral artery and the telemetry device was implanted subcutaneously in the left flank area. Animals were allowed to recover from surgery for 14 days before the start of any studies. Blood pressure, heart rate, and activity signals from conscious, freely moving rats were recorded continuously for 30 seconds every 10 minutes. On the day prior to administration of compound, a single oral dose of vehicle (10% transcutol/20% Cremophor/70% water) was administered to all animals to establish baseline control data. The blood pressure lowering efficacy of compound (PO) or vehicle was evaluated following a single oral gavage. Data were collected as hourly averages, and changes in blood pressure were calculated by subtracting control baseline data on an hourly basis. Animals were maintained on normal diet with a 12 hour light-dark cycle.
Maximum peak decreases of systolic blood pressure (SBP) in SHR at a particular P.O. dose (mpk milligrams per kilogram) for the following representative compounds are provided. Category A=SBP in SHRs <20 mmHg; Category B=SBP in SHRs 20-40 mmHg; Category C=SBP in SHRs >40 mmHg.

Emax (sGC α1/β1 heterodimer) [%] | SMILES | Maximum peak decrease of systolic blood pressure (SBP) in SHR, Cat. ([1]; P.O. 1 mpk) | Maximum peak decrease of systolic blood pressure (SBP) in SHR, Cat. ([1]; P.O. 0.3 mpk) | Maximum peak decrease of systolic blood pressure (SBP) in SHR, Cat. ([1]; P.O. 2 mpk) | Maximum peak decrease of systolic blood pressure (SBP) in SHR, Cat. ([1]; P.O. 3 mpk)
152 | CC1(c2ccc(Cl)cn2)C(=O)Nc2nc(-c3cn4ncnc4c(CCC(F)(F)F)n3)nc(N)c21 (stereo not drawn) [Example 79A, 4-amino-5-(5-chloropyridin-2-yl)-5-methyl-2-(8-(3,3,3-trifluoropropyl)-[1,2,4]triazolo[1,5-a]pyrazin-6-yl)-5H-pyrrolo[2,3-d]pyrimidin-6(7H)-one] | B (Category B=SBP in SHRs 20-40 mmHg) |  |  | 
106 | C[C@@]1(c2ccc(F)cc2)C(=O)Nc2nc(-c3cn4ncnc4c(Cc4ccc(F)cc4)n3)nc(N)c21 [Example 85B, (S)-4-amino-2-(8-(4-fluorobenzyl)-[1,2,4]triazolo[1,5-a]pyrazin-6-yl)-5-(4-fluorophenyl)-5-methyl-5H-pyrrolo[2,3-d]pyrimidin-6(7H)-one] |  | C (Category C=SBP in SHRs >40 mmHg) |  | 
137 | Cc1nc2c(CCC(F)(F)C(F)(F)F)nc(-c3nc(N)c4c(n3)NC(=O)[C@@]4(C)c3ccc(F)cc3)cn2n1 [Example 88B, (S)-4-amino-5-(4-fluorophenyl)-5-methyl-2-(2-methyl-8-(3,3,4,4,4-pentafluorobutyl)-[1,2,4]triazolo[1,5-a]pyrazin-6-yl)-5H-pyrrolo[2,3-d)pyrimidin-6(7H)-one] | C (Category C=SBP in SHRs >40 mmHg) |  |  | 
138 | CC1(c2ccc(Cl)cc2)C(=O)Nc2nc(-c3cn4ncnc4cn3)nc(N)c21 (stereo not drawn) [Example 94A, 2-([1,2,4]triazolo[1,5-a]pyrazin-6-yl)-4-amino-5-(4-chlorophenyl)-5-methyl-5H-pyrrolo[2,3-d]pyrimidin-6(7H)-one] | C (Category C=SBP in SHRs >40 mmHg) |  |  | 
74 | CC1(c2cn(C3CC3)nn2)C(=O)Nc2nc(-c3cn4ncnc4c(CCC(F)(F)C(F)(F)F)n3)nc(N)c21 (stereo not drawn) [Example 95B, 4-Amino-5-(1-cyclopropyl-1H-1,2,3-triazol-4-yl)-5-methyl-2-(8-(3,3,4,4,4-pentafluorobutyl)-[1,2,4]triazolo[1,5-a]pyrazin-6-yl)-5H-pyrrolo[2,3-d]pyrimidin-6(7H)-one] |  | C (Category C=SBP in SHRs >40 mmHg) |  | 
164 | CC1(c2nnc(C3CC3)o2)C(=O)Nc2nc(-c3cn4ncnc4c(CCC(F)(F)C(F)(F)F)n3)nc(N)c21 (stereo not drawn) [Example 98B, 4-amino-5-(5-cyclopropyl-1,3,4-oxadiazol-2-yl)-5-methyl-2-(8-(3,3,4,4,4-pentafluorobutyl)-[1,2,4]triazolo[1,5-a]pyrazin-6-yl)-5H-pyrrolo[2,3-d]pyrimidin-6(7H)-one] | B (Category B=SBP in SHRs 20-40 mmHg) |  |  | 
104 | Cc1nc2c(CCC(F)(F)C(F)(F)F)nc(-c3nc(N)c4c(n3)NC(=O)C4(C)c3nnc(C4CC4)o3)cn2n1 (stereo not drawn) [Example 103A, 4-amino-5-(5-cyclopropyl-1,3,4-oxadiazol-2-yl)-5-methyl-2-(2-methyl-8-(3,3,4,4,4-pentafluorobutyl)-[1,2,4]triazolo[1,5-a]pyrazin-6-yl)-5H-pyrrolo[2,3-d]pyrimidin-6(7H)-one] |  |  | A (Category A=SBP in SHRs <20 mmHg) | 
117 | Nc1nc(-c2cn3ncnc3c(CCCC(F)(F)F)n2)nc2c1C(c1nnc(C3CC3)o1)(C1CC1)C(=O)N2 (stereo not drawn) [Example 104A, 4-amino-5-cyclopropyl-5-(5-cyclopropyl-1,3,4-oxadiazol-2-yl)-2-(8-(4,4,4-trifluorobutyl)-[1,2,4]triazolo[1,5-a]pyrazin-6-yl)-5H-pyrrolo[2,3-d]pyrimidin-6(7H)-one] |  |  |  | C (Category C=SBP in SHRs >40 mmHg)
176 | CCCCc1nc(-c2nc(N)c3c(n2)NC(=O)C3(c2nnc(C(F)(F)F)o2)C2CC2)cn2ncnc12 (stereo not drawn) [Example 105A, 4-amino-2-(8-butyl-[1,2,4]triazolo[1,5-a]pyrazin-6-yl)-5-cyclopropyl-5-(5-(trifluoromethyl)-1,3,4-oxadiazol-2-yl)-5H-pyrrolo[2,3-d]pyrimidin-6(7H)-one] |  | B (Category B=SBP in SHRs 20-40 mmHg) |  | 
95 | Nc1nc(-c2cn3ncnc3c(CCCC(F)(F)F)n2)nc2c1C(c1nnc(C(F)(F)F)o1)(C1CC1)C(=O)N2 (stereo not drawn) [Example 106A, 4-amino-5-cyclopropyl-2-(8-(4,4,4-trifluorobutyl)-[1,2,4]triazolo[1,5-a]pyrazin-6-yl)-5-(5-(trifluoromethyl)-1,3,4-oxadiazol-2-yl)-5H-pyrrolo[2,3-d]pyrimidin-6(7H)-one] |  | C (Category C=SBP in SHRs >40 mmHg) |  | 
76 | Nc1nc(-c2cn3ncnc3c(CCC(F)(F)C(F)(F)F)n2)nc2c1C(c1nnc(C3CC3)o1)(C1CC1)C(=O)N2 (stereo not drawn) [Example 107A, 4-amion-5-cyclopropyl-5-(5-cyclopropyl-1,3,4-oxadiazol-2-yl)-2-(8-(3,3,4,4,4-pentafluorobutyl)-[1,2,4]triazolo[1,5-a]pyrazin-6-yl)-5H-pyrrolo[2,3-d]pyrimidin-6(7H)-one] |  |  |  | C (Category C=SBP in SHRs >40 mmHg)
70 | CC1(c2ccc(O)cn2)C(=O)Nc2nc(-c3cn4ncnc4c(CCC(F)(F)C(F)(F)F)n3)nc(N)c21 (stereo not drawn) [Example 110A, 4-Amino-5-(5-hydroxypyridin-2-yl)-5-methyl-2-(8-(3,3,4,4,4-pentafluorobutyl)-[1,2,4]triazolo[1,5-a]pyrazin-6-yl)-5,7-dihydro-6H-pyrrolo[2,3-d]pyrimidin-6-one] |  |  |  | B (Category B=SBP in SHRs 20-40 mmHg)
91 | Nc1nc(-c2cn3ncnc3c(CCCC(F)(F)F)n2)nc2c1C(c1ccc(O)cn1)(C1CC1)C(=O)N2 (stereo not drawn) [Example 112A, 4-amino-5-cyclopropyl-5-(5-hydroxypyridin-2-yl)-2-(8-(4,4,4-trifluorobutyl)-[1,2,4]triazolo[1,5-a]pyrazin-6-yl)-5H-pyrrolo[2,3-d]pyrimidin-6(7H)-one] |  |  |  | A (Category A=SBP in SHRs <20 mmHg)
122 | Nc1nc(-c2cn3ncnc3c(CCC(F)(F)C(F)(F)F)n2)nc2c1C(c1ccccn1)(C1CC1)C(=O)N2 (stereo not drawn) [Example 114A, 4-amino-5-cyclopropyl-2-(8-(3,3,4,4,4-pentafluorobutyl)-[1,2,4]triazolo[1,5-a]pyrazin-6-yl)-5-(pyridin-2-yl)-5,7-dihydro-6H-pyrrolo[2,3-d]pyrimidin-6-one] | B (Category B=SBP in SHRs 20-40 mmHg) |  |  | 
118 | Nc1nc(-c2cn3ncnc3c(CCCC(F)(F)F)n2)nc2c1C(c1ccccn1)(C1CC1)C(=O)N2 (stereo not drawn) [Example 115A, 4-amino-5-cyclopropyl-5-(pyridin-2-yl)-2-(8-(4,4,4-trifluorobutyl)-[1,2,4]triazolo[1,5-a]pyrazin-6-yl)-5H-pyrrolo[2,3-d]pyrimidin-6(7H)-one] | B (Category B=SBP in SHRs 20-40 mmHg) |  |  | 
